According to patent US20090221665A1, “Organic Compounds” (priority 2005, published 2009):

Test system: male rats
Test: Fecal pellet output in male rats after i.p. dosing
Assay type: in vivo, rat
Details: for fecal pellet output (in words): dosed alone, every 30 mins for 2 hr
Method: Methods: In male rats (200-300 g) fecal pellet output was measured every 30 mins for 2 hr following administration of tegaserod (0.01-1.0 mg/kg i.p.), neostigmine (0.01-0.1 mg/kg i.p.) or a combination of both compounds.

## CN(C)C(=O)Oc1cccc([N+](C)(C)C)c1 [Neo, neostigmine]
Neo 0.01 mg/kg i.p. alone, 30 min
  # Fecal Pellets: 0.67 ± 0.33
Neo 0.01 mg/kg i.p. alone, 60 min
  # Fecal Pellets: 1.00 ± 0.58
Neo 0.01 mg/kg i.p. alone, 90 min
  # Fecal Pellets: 1.00 ± 0.58
Neo 0.01 mg/kg i.p. alone, 120 min
  # Fecal Pellets: 1.33 ± 0.67
Neostigmine 0.01-0.1 mg/kg i.p.
  fecal pellet output (in words): dose and time-dependent increase in fecal pellet output

## CCCCCNC(=N)N/N=C/c1c[nH]c2ccc(OC)cc12 [Teg, 3-(5-methoxy-1H-indol-3-yl-methylene)-N-pentylcarbazimidamide]
Teg 0.01 mg/kg i.p. alone, 30 min
  # Fecal Pellets: 0.17 ± 0.17
Teg 0.01 mg/kg i.p. alone, 60 min
  # Fecal Pellets: 0.17 ± 0.17
Teg 0.01 mg/kg i.p. alone, 90 min
  # Fecal Pellets: 0.33 ± 0.21
Teg 0.01 mg/kg i.p. alone, 120 min
  # Fecal Pellets: 1.50 ± 0.62
Teg 0.1 mg/kg i.p. alone, 30 min
  # Fecal Pellets: 0.83 ± 0.32
Teg 0.1 mg/kg i.p. alone, 60 min
  # Fecal Pellets: 1.25 ± 0.35
Teg 0.1 mg/kg i.p. alone, 90 min
  # Fecal Pellets: 1.50 ± 0.34
Teg 0.1 mg/kg i.p. alone, 120 min
  # Fecal Pellets: 1.83 ± 0.39
Tegaserod 0.01-1.0 mg/kg i.p.
  fecal pellet output (in words): dose and time-dependent increase in fecal pellet output
